Like-named read-outs stand apart in the source and are kept apart here.
Legend:
[1] = test system: NCI-H460 cells; assay: Antiproliferation assay - oxygen dependence; type: cell-based, human; conditions: Homo sapiens
Text: . […] The calculated IC50 values (μM) are tabulated in Table Y1 (H460 cells) or Table Y2 (HT29 cells) below.

[2] = type: physicochemical; conditions: glassy carbon, Ag/AgCl reference
[3] = logP (partitioning between octanol and water); type: physicochemical; conditions: logP
Text: As used herein “LogP” means a measure of lipophilicity of a substance determined based on the partitioning of the substance betwen octanol and water.

[4] = test system: NCI H460 xenograft; type: in vivo, mouse; conditions: Group 3: Compound 24 3 mg/kg (q1d × 5 d)/week × 3 week; day 27; vs vehicle
Text: Comparisons were made on day 27 because that was the last day of measurements for the vehicle group and those animals were sacrificed.

[5] = test system: HT29 xenograft; assay: HT-29 human colon carcinoma xenograft mouse model (Example 50); type: in vivo
Method: Female CB17/SCID mice (purchased from Charles River, Cambridge, Mass.), 7-8 weeks of age, were allowed to acclimatize for at least three days, and handled under pathogen-free conditions. Human colon carcinoma cell line HT29 was obtained from the American Type Culture Collection. The cell lines were cultured and harvested as described in Example 47 above, and inoculated at 3×10^6 cells/animal in the peritoneal subcutaneous space. […]; in saline) on the days the combination therapy was scheduled; 5FU alone (in saline), or CDDP alone.
In control groups, tumors were implanted in two locations as part of a separate study of effect of location on control group tumor growth. […] The body weight and tumor volume were measured as described in Example 47. Tumor growth inhibition measured on day 25 when vehicle tumors had reached the maximal size and animals in that group were sacrificed is tabulated below.

[6] = in vivo; conditions: CD-1, mouse, ip, 50 mg/kg
[7] = test system: H460 lung carcinoma spheroids; assay: Spheroid model, clonogenic survival; conditions: Homo sapiens, NCI-H460, 2 h, read-out: IC90 H460 Spheroid 10% O2
[8] = test system: NCI-H460 cells; assay: Clonogenic assay - oxygen dependence; conditions: Homo sapiens
[9] = test system: H460 cells exposed as monolayers; assay: Clonogenic survival of monolayer cells (Example 35); conditions: Homo sapiens, NCI-H460, 2 h
[10] = test system: NCI-H460 cells; assay: Antiproliferation assay (Alamar Blue), anoxia vs air; conditions: Homo sapiens, NCI-H460, 2 h
[11] = test system: MES-SA cells; assay: as above; conditions: Homo sapiens, 2 h
[12] = test system: MES-SA/Dx5 cells; assay: as above; conditions: Homo sapiens, MES-SA/Dx5, 2 h
[13] = test system: H460 cell line; assay: Anti-proliferation assay, hypoxia vs normoxia (Table 1A); conditions: for IC50: Homo sapiens; for HCR P: ratio of IC50 in normoxia and hypoxia
[14] = test system: mouse (MLM) liver microsomal proteins; type: in vitro ADME; conditions: Table 2B
[15] = MTD (Table 2B); conditions: in vivo
[16] = Plasma stability (Table 2B); conditions: 30 min
[17] = test system: HT29 cells; assay: Antiproliferation assay (Alamar Blue), anoxia vs air; conditions: Homo sapiens, HT-29, 2 h
[18] = test system: HT29; assay: Anti-proliferation assay, hypoxia vs normoxia (Table 1B); conditions: for IC50: Homo sapiens
[19] = test system: DX-5; assay: as above
[20] = read-out: IC50 H460 Air, air, 2 h exposure
[21] = read-out: IC50 H460 Anoxia, anoxia, 2 h exposure
[22] = read-out: IC50 MES-SA/Dx5 Anoxia
[23] = NCI-H460, read-out: Hypoxia P (proliferation IC50)
[24] = NCI-H460, read-out: Normoxia P (proliferation IC50)

## O=[N+]([O-])c1ccc(COP(=O)(NCCBr)NCCBr)o1 [Compound 24]
[1]; NCI-H460, read-out: IC50 in H460 cells, 0.6% O2
  IC50: 0.85 µM
[1]; NCI-H460, read-out: IC50 in H460 cells, Air
  IC50: > 1 µM
[1]; NCI-H460, read-out: IC50 in H460 cells, N2
  IC50: 0.007 µM
[2]; scan rate 100 mV/sec
  Reduction Potentials, 100 mV/sec: −568 mV
[2]; scan rate 10,000 mV/sec
  Reduction Potentials, 10,000 mV/sec: −636 mV
[3]
  logP: < 0
[4]
  % Inhibition vs Group 1: 39.9%
[5]
  tumor growth inhibition, monotherapy: more than 40%
[5]; during treatment, recovered after end of treatment
  body weight: minor decreases in weights
[6]
  AUC: 64000 ng·h/mL
  Cmax: 7600 ng/mL
  Tmax: 5 min
  half-life: 4.1 min
[7]
  IC90: 3 µM
[8]; NCI-H460, read-out: IC90 H460 0.6% O2
  IC90: 0.25 µM
[8]; NCI-H460, read-out: IC90 H460 Air
  IC90: 14 µM
[8]; NCI-H460, read-out: IC90 H460 N2
  IC90: 0.07 µM
[9]; read-out: IC90 H460 Monolayer 0.6% O2
  IC90: 0.25 µM
[9]; read-out: IC90 H460 Monolayer Air
  IC90: 4 µM
[9]; read-out: IC90 H460 Monolayer N2
  IC90: 0.07 µM
[10]; [20]
  IC50: 4 µM
[10]; [21]
  IC50: 0.01 µM
[11]; read-out: IC50 MES-SA Air
  IC50: 2 µM
[11]; read-out: IC50 MES-SA Anoxia
  IC50: 0.1 µM
[12]; read-out: IC50 MES-SA/Dx5 Air
  IC50: 0.8 µM
[12]; [22]
  IC50: 0.1 µM
[13]; [23]
  IC50: 0.01 µM
[13]; NCI-H460, read-out: IC50 in cells under hypoxia
  IC50: 0.05 µM
[13]; [24]
  IC50: 4 µM
[13]; anti-proliferation cytotoxicity assay
  fold more toxic in hypoxic cells than in normoxic cells: 400 fold
[13]
  HCR P: 400

## Cn1c(COP(=O)(N(CCCl)CCCl)N(CCCl)CCCl)cnc1[N+](=O)[O-] [Compound 6]
[14]
  Metabolic stability (MLM) (% at 30 min): 0%
[15]
  MTD: 250 mg/kg
[16]
  Plasma stability (% at 30 min): 60%
[10]; [20]
  IC50: > 100 µM
[10]; [21]
  IC50: 0.7 µM
[17]; read-out: IC50 HT29 Air
  IC50: > 100 µM
[17]; read-out: IC50 HT29 Anoxia
  IC50: 22 µM
[12]; read-out: IC50 MES-SA/Dx5 Air
  IC50: > 100 µM
[12]; [22]
  IC50: 5 µM
[13]; [23]
  IC50: 0.7 µM
[13]; [24]
  IC50: > 100 µM
[13]
  HCR P: >140
[18]
  HT29 HCR P: >2
[18]; HT-29, read-out: HT29 P H (proliferation IC50, hypoxia)
  IC50: 55 µM
[18]; HT-29, read-out: HT29 P N (proliferation IC50, normoxic)
  IC50: > 100 µM
[19]
  DX-5 HCR: >20
[19]; read-out: DX-5 P H (proliferation IC50, hypoxia)
  IC50: 5 µM
[19]; read-out: DX-5 P N (proliferation IC50, normoxic)
  IC50: > 100 µM

From patent publication US8507464B2, “Phosphoramidate alkylator prodrugs” (Threshold Pharmaceuticals, Inc., priority 2005, dated 2013)
